# Values joined by “and” are separate entries in the source; they are usually repeats but may differ in a detail not shown here. Equal entries are not always repeated.
# Columns and labels:
# [1] = biological target: T1, Splicing factor 3B subunit 3 (Homo sapiens, UniProt Q15393); test: WiDr; conditions: pH 7.8; 4 °C
# T1 sequence (Q15393 whole entry): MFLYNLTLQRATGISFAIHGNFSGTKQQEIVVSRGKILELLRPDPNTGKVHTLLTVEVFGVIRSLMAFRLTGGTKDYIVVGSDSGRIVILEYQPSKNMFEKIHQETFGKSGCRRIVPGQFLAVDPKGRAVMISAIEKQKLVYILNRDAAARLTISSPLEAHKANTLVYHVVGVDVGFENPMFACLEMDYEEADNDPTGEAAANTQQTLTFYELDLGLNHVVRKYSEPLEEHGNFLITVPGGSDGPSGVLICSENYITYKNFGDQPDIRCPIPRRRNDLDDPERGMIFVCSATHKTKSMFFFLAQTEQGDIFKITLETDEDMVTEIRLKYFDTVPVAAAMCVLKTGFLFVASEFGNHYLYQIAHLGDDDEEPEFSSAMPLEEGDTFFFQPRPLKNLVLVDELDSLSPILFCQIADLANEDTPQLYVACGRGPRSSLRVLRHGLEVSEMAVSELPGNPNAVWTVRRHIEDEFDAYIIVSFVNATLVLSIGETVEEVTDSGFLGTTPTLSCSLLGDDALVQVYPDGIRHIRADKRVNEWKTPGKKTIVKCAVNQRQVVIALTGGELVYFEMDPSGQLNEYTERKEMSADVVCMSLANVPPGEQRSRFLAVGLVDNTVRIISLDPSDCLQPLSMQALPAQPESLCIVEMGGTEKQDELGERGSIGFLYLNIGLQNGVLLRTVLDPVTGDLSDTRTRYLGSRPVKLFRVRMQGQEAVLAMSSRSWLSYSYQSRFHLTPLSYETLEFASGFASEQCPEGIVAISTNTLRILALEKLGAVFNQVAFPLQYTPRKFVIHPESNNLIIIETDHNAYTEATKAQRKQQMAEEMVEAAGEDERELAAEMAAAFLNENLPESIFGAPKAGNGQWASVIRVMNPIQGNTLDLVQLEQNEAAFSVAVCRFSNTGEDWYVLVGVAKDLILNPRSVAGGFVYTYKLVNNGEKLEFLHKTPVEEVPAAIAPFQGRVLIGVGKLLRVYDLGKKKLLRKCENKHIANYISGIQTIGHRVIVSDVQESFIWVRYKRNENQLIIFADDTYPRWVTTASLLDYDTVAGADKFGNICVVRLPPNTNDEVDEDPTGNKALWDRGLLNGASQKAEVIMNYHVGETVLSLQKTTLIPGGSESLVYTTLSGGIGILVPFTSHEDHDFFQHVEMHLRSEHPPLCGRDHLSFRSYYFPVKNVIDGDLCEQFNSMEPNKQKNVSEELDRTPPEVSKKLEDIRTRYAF
# From the text: Cell proliferation assay using WiDr
# [2] = biological target: Splicing factor 3B subunit 1 / PHD finger-like domain-containing protein 5A (Homo sapiens, UniProt O75533+Q7RTV0); test: VEGF-PLAP; conditions: pH 7.8; 4 °C
# Sequence of Splicing factor 3B subunit 1 / PHD finger-like domain-containing protein 5A (O75533 whole entry, the tested form may be a part): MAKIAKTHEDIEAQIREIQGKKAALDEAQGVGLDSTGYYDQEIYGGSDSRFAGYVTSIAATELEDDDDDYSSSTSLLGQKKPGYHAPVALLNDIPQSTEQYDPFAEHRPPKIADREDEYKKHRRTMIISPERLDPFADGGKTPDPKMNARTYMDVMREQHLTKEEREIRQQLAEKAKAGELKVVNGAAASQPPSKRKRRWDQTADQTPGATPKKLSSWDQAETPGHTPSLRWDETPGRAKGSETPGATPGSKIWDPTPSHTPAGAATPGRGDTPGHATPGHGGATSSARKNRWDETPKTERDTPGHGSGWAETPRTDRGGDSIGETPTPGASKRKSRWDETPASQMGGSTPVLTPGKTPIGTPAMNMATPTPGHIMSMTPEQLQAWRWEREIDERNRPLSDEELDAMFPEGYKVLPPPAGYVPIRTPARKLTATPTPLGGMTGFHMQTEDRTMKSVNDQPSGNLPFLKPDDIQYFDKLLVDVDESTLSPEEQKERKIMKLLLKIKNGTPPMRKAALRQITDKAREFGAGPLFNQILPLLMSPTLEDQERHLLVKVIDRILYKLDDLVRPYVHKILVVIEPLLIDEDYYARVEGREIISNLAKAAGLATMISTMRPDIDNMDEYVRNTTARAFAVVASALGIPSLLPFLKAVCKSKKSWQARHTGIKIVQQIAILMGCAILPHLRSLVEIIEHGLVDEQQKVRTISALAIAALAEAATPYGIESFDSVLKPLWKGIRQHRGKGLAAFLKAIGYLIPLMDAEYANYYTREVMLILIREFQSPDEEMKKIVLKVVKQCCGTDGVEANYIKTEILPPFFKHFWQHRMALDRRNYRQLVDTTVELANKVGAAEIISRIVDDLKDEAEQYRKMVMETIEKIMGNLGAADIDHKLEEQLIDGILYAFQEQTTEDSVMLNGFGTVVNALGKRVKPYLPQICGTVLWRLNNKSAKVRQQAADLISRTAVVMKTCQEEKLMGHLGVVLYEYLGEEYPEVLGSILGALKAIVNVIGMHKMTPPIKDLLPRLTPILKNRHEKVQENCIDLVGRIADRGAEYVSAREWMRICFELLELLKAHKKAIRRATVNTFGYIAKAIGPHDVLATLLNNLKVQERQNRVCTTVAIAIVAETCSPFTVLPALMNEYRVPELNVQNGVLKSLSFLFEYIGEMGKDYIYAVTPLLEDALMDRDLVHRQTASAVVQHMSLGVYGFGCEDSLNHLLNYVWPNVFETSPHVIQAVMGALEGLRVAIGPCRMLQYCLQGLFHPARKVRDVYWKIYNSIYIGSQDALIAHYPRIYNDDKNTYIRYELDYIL
# Sequence of Splicing factor 3B subunit 1 / PHD finger-like domain-containing protein 5A (Q7RTV0 2-110 limits assumed): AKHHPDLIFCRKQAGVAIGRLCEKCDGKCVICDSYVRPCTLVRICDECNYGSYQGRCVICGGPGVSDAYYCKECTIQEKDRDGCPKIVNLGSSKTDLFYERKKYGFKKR
# From the text: Placental alkaline phosphatase (PLAP) reporter assay controlled by VEGF promoter (VEGF-PLAP)
SMILES,EC50 [1] [nM],EC50 [2]
"CC[C@H](O)[C@@H](C)[C@H]1O[C@@H]1C[C@@](C)(O)/C=C/C=C(\C)[C@H]1OC(=O)C[C@H](O)CC[C@@](C)(O)[C@@H](OC(C)=O)/C=C/[C@@H]1C [(3R,6R,7S,8E,10S,11S,12E,14E,16R,18R,19R,20R,21S)-7-acetoxy-3,6,16,21-tetrahydroxy-6,10,12,16,20-pentamethyl-18,19-epoxytricosa-8,12,14-triene-11-olide]",6,4.3 nM
CC[C@H](O)[C@@H](C)[C@H]1O[C@@H]1C[C@H](C)/C=C/C=C(\C)[C@H]1OC(=O)C[C@H](O)CC[C@@](C)(O)[C@@H](OC(=O)NCCCC[C@H](NC(=O)c2ccc(C3(C(F)(F)F)N=N3)cc2)C(=O)N(C)CCN(C)C(=O)CCCC[C@H]2SC[C@H]3NC(=O)N[C@H]32)/C=C/[C@@H]1C [CID1620213],595,
CCNC(=O)O[C@H]1/C=C/[C@H](C)[C@@H](/C(C)=C/C=C/[C@@H](C)C[C@H]2O[C@@H]2[C@H](C)[C@@H](O)CC)OC(=O)C[C@H](O)CC[C@@]1(C)O [CID16202133],6.1,4.9 nM
CC[C@H](O)[C@@H](C)[C@H]1O[C@@H]1C[C@H](C)/C=C/C=C(\C)[C@H]1OC(=O)C[C@H](O)CC[C@@](C)(O)[C@@H](OC(=O)NCCOCCOCCNC(=O)CCCCC2=[N+]3C(=Cc4c(C)cc(C)n4[B-]3(F)F)C=C2)/C=C/[C@@H]1C [CID16202134],70.2,78.4 nM and 645 nM

# Source: BindingDB's records for doi:10.1038/nchembio.2007.16 (Eisai Co., Ltd, 2007)
